Assay results as given in a melting point compilation (Tetko et al.; mined from patent text by program, amines drawn as free bases though some values may be those of a salt).

Q: For `COc1cc(C2C(=O)N(C)Cc3c2ccc(OC)c3OC(C)C)cc(OC)c1OC` (centres undefined), which melting point is on record?
A: Its melting point is 128 to 129 °C.

Q: For `Fc1ccc(OCc2ccnc3c(Cl)cccc23)cc1`, which melting point is on record?
A: The melting point was 144 to 145 °C.

Q: With `Fc1ccc(F)c(CN2CCNc3ncc(-c4cnc(N5CCOCC5)nc4)cc32)c1Cl` as the compound, how does the melting point read?
A: Its melting point is 250 to 251 °C.

Q: With `CCCSc1cccc2c1C(=O)c1cccc(SCCC)c1C2=O` as the compound, how does the melting point read?
A: Its melting point is 232 to 233 °C.

Q: Which melting point does the source give for `Cn1c([N+](=O)[O-])cnc1-c1nnc2ccc(N=CN3CCC(O)CC3)nn12` here?
A: The melting point was 188 to 190 °C.

Q: With `COc1cc2c(cc1Nc1ncc(Cl)c(Nc3ccccc3-n3cccn3)n1)CCN(CC(=O)N(C)C)CC2` as the compound, how does the melting point read?
A: The melting point was 66 to 67 °C.

Q: For `C1=C(c2ccccc2)CC(CN2CCN(c3ccccn3)CC2)C1` (centres undefined), which melting point is on record?
A: The melting point was 100 to 101 °C.

Q: With `Cc1ncoc1C(O)c1ccccc1` (centres undefined) as the compound, how does the melting point read?
A: The melting point was 79 to 81 °C.

Q: Which melting point does the source give for `CCCc1c2nc(C(=O)OC)cc(Br)c2cc2c(=O)cc(C(=O)OC)oc12` here?
A: Its melting point is 179 to 180 °C.

Q: For `CN(Cc1cccc(-c2ccc(O)cc2)c1)C(=O)OC(C)(C)C`, which melting point is on record?
A: Its melting point is 174 °C.

Q: Which melting point does the source give for `COC(=O)C1=C(C)NC(C)=C(C(=O)OCCN2CC=C(c3ccccc3)CC2)C1c1cccc([N+](=O)[O-])c1` (centres undefined) here?
A: Its melting point is 115 to 116 °C.

Q: For `COc1ccc(C2(c3ccc(OC)cc3)CC2(C)Br)cc1` (centres undefined), which melting point is on record?
A: The melting point was 97 to 104 °C.

Q: For `CN(C)Cc1ccc(/C=C/C(=O)O)cn1`, which melting point is on record?
A: Its melting point is 144 °C.

Q: For `Cc1cn(C2CC(O)C(C#N)(CO)O2)c(=O)[nH]c1=O` (centres undefined), which melting point is on record?
A: Its melting point is 238 to 242 °C.

Q: With `COc1ccc(NC(=O)N2CCc3cc(S(=O)(=O)N4CC(c5ccccc5)NC4=O)ccc32)cc1` (centres undefined) as the compound, how does the melting point read?
A: Its melting point is 268 to 270 °C.

Q: With `Cc1ccccc1-c1cn(C)cc(-c2cccc(Cl)c2)c1=O` as the compound, how does the melting point read?
A: Its melting point is 171 to 173 °C.

Q: Which melting point does the source give for `CCOC(=O)c1cn(CCCl)c2nc(N3CCN(C(=O)OCC)CC3)c(F)cc2c1=O` here?
A: Its melting point is 143 to 144 °C.

Q: For `Cc1cc(-n2ccnc2)c2cccc(OCc3c(Cl)ccc(S(=O)(=O)N4CCC[C@H]4C(=O)NCC4CCN(C(=O)c5ccccc5)CC4)c3Cl)c2n1`, which melting point is on record?
A: The melting point was 102 °C.

Q: For `Cc1cccc(NC(=O)NC2C(=O)N(C)c3ccccc3N(C34CC5CC(CC(C5)C3)C4)C2=O)c1` (centres undefined), which melting point is on record?
A: Its melting point is 245 to 247 °C.

Q: Which melting point does the source give for `CCc1nc(-c2cccc(C)c2)c(-c2ccnc(N)c2)s1` here?
A: The melting point was 144 to 146 °C.

Q: With `OP(O)C(NC(c1ccccc1)c1ccccc1)c1cccs1` (centres undefined) as the compound, how does the melting point read?
A: Its melting point is 201 °C.

Q: With `CCOC(=O)c1ccccc1NC(=O)CBr` as the compound, how does the melting point read?
A: Its melting point is 65 to 66 °C.

Q: With `CCOC(=O)C(=Nc1ccccc1)c1cccn1C` as the compound, how does the melting point read?
A: The melting point was 69 to 71 °C.

Q: Which melting point does the source give for `Cc1oncc1C(=O)N1CCCCC1` here?
A: The melting point was 40 to 43 °C.

Q: With `COC(=O)[C@H](Cc1ccccc1)NC(=O)N(Cc1ccccc1)NC(=O)OC(C)(C)C` as the compound, how does the melting point read?
A: Its melting point is 71 to 73 °C.

Q: With `COc1cc(OC)c2c(=O)[nH]c(-c3ccc(CN4CCN(C)CC4)cc3)nc2c1` as the compound, how does the melting point read?
A: The melting point was 275 to 277 °C.

Q: Which melting point does the source give for `CCCCOc1cc(/C=C(\OCC)C(=O)O)ccc1OCCc1ccc(NS(C)(=O)=O)cc1` here?
A: Its melting point is 141 °C.

Q: For `O=C(O)Cc1cc2c([N+](=O)[O-])c(O)c(O)cc2oc1=O`, which melting point is on record?
A: The melting point was > 350 °C.

Q: With `O=C(NC1C(=O)N(CC2C3CC4CC(C3)CC2C4)c2ccccc2N(c2ccccc2)C1=O)Oc1ccccc1` (centres undefined) as the compound, how does the melting point read?
A: The melting point was 167 to 168 °C.

Q: Which melting point does the source give for `Cc1n[nH]c(C)c1Oc1cc(Cl)cc(Cl)c1` here?
A: Its melting point is 85 to 87 °C.

Q: With `CCOC(=O)c1ccc(CCN2CCN(CCCS(=O)(=O)O)CC2)cc1` as the compound, how does the melting point read?
A: Its melting point is 235 to 236 °C.

Q: For `CCCCc1cccc(NC(=O)C=C(C)OC)c1`, which melting point is on record?
A: Its melting point is 36 °C.

Q: With `COc1ccc2c(c1)cc(-c1nc(C)no1)n2-c1ccc(CNC(=O)C2(NC(=O)OC(C)(C)C)CC2)cc1` as the compound, how does the melting point read?
A: Its melting point is 212 to 214 °C.

Q: Which melting point does the source give for `CN(C)C1(c2cccs2)CC=C(c2[nH]c3ccccc3c2CCc2ccncc2)CC1` (centres undefined) here?
A: Its melting point is 189 to 193 °C.

Q: With `Cc1cc(F)ccc1C(O)(Cc1nnnn1C)c1ccc(F)cc1C` as the compound, how does the melting point read?
A: The melting point was 186 to 188 °C.

Q: With `N#Cc1ccc(C=O)c(SCCc2ccccc2)c1` as the compound, how does the melting point read?
A: Its melting point is 89 °C.

Q: Which melting point does the source give for `N#CCOc1ccc2cc(Br)ccc2c1Cl` here?
A: The melting point was 126 to 127 °C.

Q: Which melting point does the source give for `N#CCc1cnc(Cl)c(Cl)c1` here?
A: Its melting point is 72 to 75 °C.

Q: With `COc1ccc(Sc2ccc(C=[N+]([O-])C(C)(C)C)o2)cc1` as the compound, how does the melting point read?
A: The melting point was 91.7 °C.
